pEC50: −log10 of the molar value.
target: T1, CD80-CD28 interaction (Homo sapiens, UniProt P33681); assay: Homogenous Time Resolved Fluorescence (HTRF) assay, cell free; type: binding; conditions: cell free HTRF assay; concentration series 100 μM-1.7 nM; 4 hours at room temperature; read-out: Activity (EC50 in the HTRF assay)
T1 sequence (P33681 35-242 limits assumed): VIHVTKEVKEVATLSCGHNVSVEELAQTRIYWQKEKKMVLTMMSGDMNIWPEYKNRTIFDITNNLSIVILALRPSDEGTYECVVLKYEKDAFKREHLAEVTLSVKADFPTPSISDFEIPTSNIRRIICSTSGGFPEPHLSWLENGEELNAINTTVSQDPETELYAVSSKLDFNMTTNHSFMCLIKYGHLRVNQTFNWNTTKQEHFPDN
Method: Homogenous Time Resolved Fluorescence Assay
The examples described above were tested in a cell free Homogenous Time Resolved Fluorescence (HTRF) assay to determine their activity as inhibitors of the CD80-CD28 interaction.
In the assay, europium and allophycocyanin (APC) are associated with CD28 and CD80 indirectly (through antibody linkers) to form a complex, which brings the europium and APC into close proximity to generate a signal. The complex comprises the following six proteins: fluorescent label 1, linker antibody 1, CD28 fusion protein, CD80 fusion protein, linker antibody 2, and fluorescent label 2. The table below describes these reagents in greater detail.
On formation of the complex, europium and APC are brought into proximity and a signal is generated.
Non-specific interaction was measured by substituting a mouse Fab fragment (C215) for the CD80 mouse Fab fragment fusion protein (1.9 μg/ml). The assay was carried out in black 384 well plates in a final volume of 30 μl. Assay buffer: 50 mM Tris-HCl, 150 mM NaCl pH7.8, containing 0.1% BSA (w/v) added just prior to use.
Compounds were added to the above reagents in a concentration series ranging between 100 μM-1.7 nM. The reaction was incubated for 4 hours at room temperature. Dual measurements were made using a Wallac Victor 1420 Multilabel Counter. First measurement: excitation 340 nm, emission 665 nm, delay 50 μs, window time 200 μs. second measurement: excitation 340 nm, emission 615 nm, delay 50 μs, window time 200 μs. Counts were automatically corrected for fluorescence crossover, quenching and background. The EC50 activities of compounds tested are recorded as: EC50:*=>10 μM,**=1-10 μM,***=<1 μM.

Row | SMILES | pEC50
1 | O=C(NCCNCc1ccccc1)c1ccc(-n2[nH]c3c(nnc4ccccc43)c2=O)cc1 [Example 281] | > 6.00
2 | CSCCCNC(=O)c1ccc(-n2[nH]c3c(nnc4ccccc43)c2=O)cc1 [Example 274] | > 6.00
3 | COC(CNC(=O)Nc1ccc(-n2[nH]c3c(nnc4ccccc43)c2=O)cc1)OC [Example 306] | > 6.00
4 | CC(C)=CCC/C(C)=C/CNC(=O)Nc1ccc(-n2[nH]c3c(nnc4ccccc43)c2=O)cc1 [Example 283] | < 5.00
5 | O=C(NCCCc1ccccc1)Nc1ccc(-n2[nH]c3c(nnc4ccccc43)c2=O)cc1 [Example 291] | < 5.00
6 | CC(C)CNC(=O)c1ccc(-n2[nH]c3c(nnc4ccccc43)c2=O)cc1 [Example 260] | 5.00 to 6.00

Results, then the compound that gave them:

Row | pEC50 | SMILES
7 | > 6.00 | O=C(NCCCCN1CCCC1)c1ccc(-n2[nH]c3c(nnc4ccc(F)cc43)c2=O)cc1 [Example 325]
8 | > 6.00 | O=C(NCCCNC1CCCCC1)c1ccc(-n2[nH]c3c(nnc4c(Cl)cccc43)c2=O)cc1 [Example 412]
9 | > 6.00 | CC(C)NCCCNC(=O)c1ccc(-n2[nH]c3c(nnc4ccc(F)cc43)c2=O)cc1 [Example 385]
10 | > 6.00 | O=C(NC1CCN(Cc2ccccc2)CC1)c1ccc(-n2[nH]c3c(nnc4ccc(F)cc43)c2=O)cc1 [Example 328]
11 | > 6.00 | CC=CCNC(=O)c1ccc(-n2[nH]c3c(nnc4c(F)cccc43)c2=O)cc1 [Example 333]
12 | > 6.00 | O=C(NC1CCN(CCC2CCCCC2)CC1)c1ccc(-n2[nH]c3c(nnc4c(F)cccc43)c2=O)cc1 [Example 336]
13 | > 6.00 | CCOCCN1CCC(NC(=O)c2ccc(-n3[nH]c4c(nnc5c(F)cccc54)c3=O)cc2)CC1 [Example 335]
14 | > 6.00 | O=C(NC1CCN(Cc2ccccc2)CC1)c1ccc(-n2[nH]c3c(nnc4c(F)cccc43)c2=O)cc1 [Example 323]
15 | < 5.00 | C[Si](C)(C)CNC(=O)c1ccc(-n2[nH]c3c(nnc4ccccc43)c2=O)cc1 [Example 320]
16 | > 6.00 | O=C(NCCCCN1CCOCC1)c1ccc(-n2[nH]c3c(nnc4ccccc43)c2=O)cc1 [Example 338]
17 | 5.00 to 6.00 | O=C(NCCc1ccccc1Br)c1ccc(-n2[nH]c3c(nnc4c(F)cccc43)c2=O)cc1 [Example 368]
18 | > 6.00 | CN1CCC(NC(=O)c2ccc(-n3[nH]c4c(nnc5cccc(F)c54)c3=O)cc2)CC1 [Example 391]
19 | > 6.00 | O=C(NCCCN1CCOCC1)c1ccc(-n2[nH]c3c(nnc4cccc(F)c43)c2=O)cc1 [Example 397]
20 | > 6.00 | Cc1ccc2nnc3c(=O)n(-c4ccc(C(=O)NCCCN(C)C)cc4)[nH]c3c2c1 [Example 406]
21 | > 6.00 | CN(C)CCNC(=O)Nc1ccc(-n2[nH]c3c(nnc4c(F)cccc43)c2=O)cc1 [Example 324]
22 | > 6.00 | O=C(NCCCCO)c1ccc(-n2[nH]c3c(nnc4ccc(F)cc43)c2=O)cc1 [Example 386]

same assay, conditions: cell-free HTRF, compound concentration series 100 μM-1.7 nM, 4 hours at room temperature; read-out: Activity (EC50 in the HTRF assay)

Row | pEC50 | SMILES
23 | < 5.00 | CCOC(=O)CCNC(=O)c1ccc(-n2[nH]c3c(nnc4ccccc43)c2=O)cc1 [Example 116]
24 | > 6.00 | O=C(Nc1ccc(-n2[nH]c3c(nnc4ccccc43)c2=O)cc1)NC1CCN(Cc2ccccc2)C1 (stereo not shown) [Example 214]
25 | > 6.00 | O=C(NC1CCCN(Cc2ccccc2)C1)c1ccc(-n2[nH]c3c(nnc4ccccc43)c2=O)cc1 (stereo not shown) [Example 80]
26 | 5.00 to 6.00 | CCOC(=O)CC(C)NC(=O)Nc1ccc(-n2[nH]c3c(nnc4ccccc43)c2=O)cc1 (stereo not shown) [Example 175]
27 | 5.00 to 6.00 | O=C(Nc1ccc(-n2[nH]c3c(nnc4ccccc43)c2=O)cc1)NC1CCOC1=O (stereo not shown) [Example 166]
28 | > 6.00 | O=C(NCCNc1ccccc1)c1ccc(-n2[nH]c3c(nnc4ccccc43)c2=O)cc1 [Example 47]
29 | < 5.00 | Cc1ccc2[nH]cc(CCNC(=O)c3ccc(-n4[nH]c5c(nnc6ccccc65)c4=O)cc3)c2c1 [Example 16]
30 | 5.00 to 6.00 | O=C(NC1CC1)c1ccc(-n2[nH]c3c(nnc4ccccc43)c2=O)cc1 [Example 78]
31 | 5.00 to 6.00 | O=C(NCCN1CCNCC1)c1ccc(-n2[nH]c3c(nnc4ccccc43)c2=O)cc1 [Example 102]
32 | > 6.00 | CCCCN(CCCC)CCNC(=O)Nc1ccc(-n2[nH]c3c(nnc4ccccc43)c2=O)cc1 [Example 206]
33 | > 6.00 | O=C(NCCCO)Nc1ccc(-n2[nH]c3c(nnc4ccccc43)c2=O)cc1 [Example 150]
34 | 5.00 to 6.00 | CC(C)(C)OC(=O)NCCNC(=O)c1ccc(-n2[nH]c3c(nnc4ccccc43)c2=O)cc1 [Example 17]
35 | > 6.00 | CCSCCNC(=O)c1ccc(-n2[nH]c3c(nnc4ccccc43)c2=O)cc1 [Example 77]
36 | 5.00 to 6.00 | CN(CCNC(=O)c1ccc(-n2[nH]c3c(nnc4ccccc43)c2=O)cc1)C(=O)OC(C)(C)C [Example 97]
37 | < 5.00 | O=C(NC1CCCC1OCc1ccccc1)c1ccc(-n2[nH]c3c(nnc4ccccc43)c2=O)cc1 (stereo not shown) [Example 44]
38 | < 5.00 | CC(NC(=O)Nc1ccc(-n2[nH]c3c(nnc4ccccc43)c2=O)cc1)C1CCCCC1 (stereo not shown) [Example 194]
39 | > 6.00 | CCCCCCCCCCCCOCCCNC(=O)Nc1ccc(-n2[nH]c3c(nnc4ccccc43)c2=O)cc1 [Example 159]
40 | 5.00 to 6.00 | O=C(Nc1ccc(-n2[nH]c3c(nnc4ccccc43)c2=O)cc1)NC1CCOC1=O (stereo not shown) [Example 195]
41 | > 6.00 | O=C(NCCN1CCOCC1)Nc1ccc(-n2[nH]c3c(nnc4ccccc43)c2=O)cc1 [Example 132]
42 | < 5.00 | C=C(C)C(=O)OCCNC(=O)Nc1ccc(-n2[nH]c3c(nnc4ccccc43)c2=O)cc1 [Example 209]
43 | > 6.00 | CCNCCNC(=O)c1ccc(-n2[nH]c3c(nnc4ccccc43)c2=O)cc1 [Example 49]
44 | < 5.00 | O=C(NCC1CCCCCC1)Nc1ccc(-n2[nH]c3c(nnc4ccccc43)c2=O)cc1 [Example 204]
45 | 5.00 to 6.00 | C=C(C)CNC(=O)Nc1ccc(-n2[nH]c3c(nnc4ccccc43)c2=O)cc1 [Example 165]
46 | 5.00 to 6.00 | O=C(NC1CCCCCC1)c1ccc(-n2[nH]c3c(nnc4ccccc43)c2=O)cc1 [Example 24]
47 | 5.00 to 6.00 | O=C(Nc1ccc(N2CCOCC2)cc1)c1ccc(-n2[nH]c3c(nnc4ccccc43)c2=O)cc1 [Example 40]
48 | 5.00 to 6.00 | CCOC(=O)CC(C)NC(=O)c1ccc(-n2[nH]c3c(nnc4ccccc43)c2=O)cc1 (stereo not shown) [Example 34]
49 | 5.00 to 6.00 | CC(CCCC(C)(C)O)NC(=O)Nc1ccc(-n2[nH]c3c(nnc4ccccc43)c2=O)cc1 (stereo not shown) [Example 137]
50 | > 6.00 | CC(O)CCNC(=O)Nc1ccc(-n2[nH]c3c(nnc4ccccc43)c2=O)cc1 (stereo not shown) [Example 171]

same assay, conditions: cell-free HTRF, concentration series 100 μM-1.7 nM, 4 hours at room temperature; read-out: Activity (EC50 in the HTRF assay)

Row | pEC50 | SMILES
51 | > 6.00 | CC1CC(C)CN(CCCCNC(=O)c2ccc(-n3[nH]c4c(nnc5c(F)cccc54)c3=O)cc2)C1 (stereo not shown) [Example 477]
52 | 5.00 to 6.00 | O=C(N[C@@H](CO)[C@@H](O)c1ccccc1)c1ccc(-n2[nH]c3c(nnc4c(F)cccc43)c2=O)cc1 [Example 513]
53 | > 6.00 | CC(N)C(C)CNC(=O)c1ccc(-n2[nH]c3c(nnc4c(F)cccc43)c2=O)cc1 (stereo not shown) [Example 443]
54 | > 6.00 | O=C(NC1CCNCC1)c1ccc(-n2[nH]c3c(nnc4c(F)cccc43)c2=O)cc1 [Example 440]
55 | > 6.00 | O=C(NC1CCC(=C(F)F)CC1)c1ccc(-n2[nH]c3c(nnc4c(F)cccc43)c2=O)cc1 (stereo not shown) [Example 492]
56 | > 6.00 | NC(=O)CNC(=O)c1ccc(-n2[nH]c3c(nnc4c(F)cccc43)c2=O)cc1 [Example 491]
57 | > 6.00 | NC1CCCC(NC(=O)c2ccc(-n3[nH]c4c(nnc5c(F)cccc54)c3=O)cc2)C1 (stereo not shown) [Example 499]
58 | 5.00 to 6.00 | O=C(NC(CO)Cc1ccc(O)cc1)c1ccc(-n2[nH]c3c(nnc4c(F)cccc43)c2=O)cc1 (stereo not shown) [Example 511]
59 | > 6.00 | O=C(NCCCN1CCCCCC1)c1ccc(-n2[nH]c3c(nnc4c(F)cccc43)c2=O)cc1 [Example 451]
60 | > 6.00 | CN1CCCN(C(=O)c2ccc(-n3[nH]c4c(nnc5c(F)cccc54)c3=O)cc2)CC1 [Example 489]
61 | 5.00 to 6.00 | O=C(NCC1CCCCC1O)c1ccc(-n2[nH]c3c(nnc4c(F)cccc43)c2=O)cc1 (stereo not shown) [Example 504]
62 | > 6.00 | O=C(NCCCCN1CCC(C(F)(F)F)CC1)c1ccc(-n2[nH]c3c(nnc4c(F)cccc43)c2=O)cc1 [Example 470]
63 | > 6.00 | O=C(NCC1CCNCC1)c1ccc(-n2[nH]c3c(nnc4c(F)cccc43)c2=O)cc1 [Example 444]

same assay, conditions: inhibition of the CD80-CD28 interaction, 4 hours at room temperature; read-out: EC50 activity in the HTRF assay

Row | pEC50 | SMILES
64 | 5.00 to 6.00 | CCOC(=O)c1ccc(-n2[nH]c3c(nnc4ccccc43)c2=O)cc1 [Example 9, 4-(3-oxo-1,3-dihydro-2H-pyrazolo[4,3-c]cinnolin-2-yl)benzoic acid ethyl ester]

— patent publication US8309552B2, “Immunomodulating heterocyclic compounds” (Medigene AG, priority 2003, dated 2012)
